# Test results as given in article PMC5218480 (PLoS ONE, 2017).
# System: MV-4-11 cells
# Assay: Gene expression microarray analysis (Affymetrix PrimeView) and GSEA
# Assay type: cell-based, human
# Parameters: RFU PODN (11730768_x_at) / Fold change /veh PODN (11730768_x_at) / RFU LINC00158 (11744669_a_at) / Fold change /veh LINC00158 (11744669_a_at) / RFU DUSP10 (11751237_a_at) / Fold change /veh DUSP10 (11751237_a_at) / RFU ID3 (11757404_x_at) / Fold change /veh ID3 (11757404_x_at) / RFU PLEKHG5 (11737974_s_at) / Fold change /veh PLEKHG5 (11737974_s_at) / RFU LRRC4B (11730491_at) / Fold change /veh LRRC4B (11730491_at) / RFU GIMAP4 (11747438_a_at) / Fold change /veh GIMAP4 (11747438_a_at) / RFU KRT8 (11758183_x_at) / Fold change /veh KRT8 (11758183_x_at) / RFU CNN1 (11734310_a_at) / Fold change /veh CNN1 (11734310_a_at) / RFU VPS37D (11726825_at) / Fold change /veh VPS37D (11726825_at) / RFU C10orf10 (11716522_x_at) / Fold change /veh C10orf10 (11716522_x_at) / RFU KIR2DL2 /// KIR2DL4 /// KIR2DL5A /// KIR2DL5B /// KIR2DS1 /// KIR2DS2 /// KIR2DS3 /// KIR2DS4 /// KIR3DL3 /// KIR3DL3 /// KIR3DS1 (11738374_at) / Fold change /veh KIR2DL2 /// KIR2DL4 /// KIR2DL5A /// KIR2DL5B /// KIR2DS1 /// KIR2DS2 /// KIR2DS3 /// KIR2DS4 /// KIR3DL3 /// KIR3DL3 /// KIR3DS1 (11738374_at) / RFU C1QL1 (11718748_at) / Fold change /veh C1QL1 (11718748_at) / RFU TMPRSS4 (11747572_a_at) / Fold change /veh TMPRSS4 (11747572_a_at) / RFU HAMP (11756126_x_at) / Fold change /veh HAMP (11756126_x_at) / RFU RNFT2 (11725882_a_at) / Fold change /veh RNFT2 (11725882_a_at) / RFU NR4A2 (11747474_a_at) / Fold change /veh NR4A2 (11747474_a_at) / RFU ABCC12 (11746883_a_at) / Fold change /veh ABCC12 (11746883_a_at) / RFU TMEM136 (11760407_x_at) / Fold change /veh TMEM136 (11760407_x_at) / RFU CLDN22 /// WWC2 (11732394_at) / Fold change /veh CLDN22 /// WWC2 (11732394_at) / RFU HLA-DPB1 (11760878_x_at) / Fold change /veh HLA-DPB1 (11760878_x_at) / RFU SPINT1 (11716480_a_at) / Fold change /veh SPINT1 (11716480_a_at) / RFU GAP43 (11754022_s_at) / Fold change /veh GAP43 (11754022_s_at) / RFU A4GNT (11735810_at) / Fold change /veh A4GNT (11735810_at) / RFU PRB3 (11715151_x_at) / Fold change /veh PRB3 (11715151_x_at) / RFU TUBB4B (11761932_at) / Fold change /veh TUBB4B (11761932_at) / RFU CAPN14 (11732068_a_at) / Fold change /veh CAPN14 (11732068_a_at) / RFU TMCC2 (11721928_a_at) / Fold change /veh TMCC2 (11721928_a_at) / RFU IRGQ (11745062_a_at) / Fold change /veh IRGQ (11745062_a_at) / RFU FAM174B (11720279_a_at) / Fold change /veh FAM174B (11720279_a_at) / RFU TMPRSS4 (11748680_a_at) / Fold change /veh TMPRSS4 (11748680_a_at) / RFU FAM212B (11763350_a_at) / Fold change /veh FAM212B (11763350_a_at) / RFU PLEKHG5 (11743358_a_at) / Fold change /veh PLEKHG5 (11743358_a_at) / RFU ZSCAN30 (11745921_a_at) / Fold change /veh ZSCAN30 (11745921_a_at) / RFU CMKLR1 (11741424_a_at) / Fold change /veh CMKLR1 (11741424_a_at) / RFU LOC101060620 /// MAPK8IP1 (11723275_at) / Fold change /veh LOC101060620 /// MAPK8IP1 (11723275_at) / RFU SPTSSB (11747773_x_at) / Fold change /veh SPTSSB (11747773_x_at) / RFU PRSS12 (11739890_at) / Fold change /veh PRSS12 (11739890_at) / RFU BIN1 (11741810_x_at) / Fold change /veh BIN1 (11741810_x_at) / RFU WNT11 (11732464_a_at) / Fold change /veh WNT11 (11732464_a_at) / RFU C10orf10 (11716521_a_at) / Fold change /veh C10orf10 (11716521_a_at) / RFU C5orf56 (11738089_at) / Fold change /veh C5orf56 (11738089_at) / RFU CYB561 (11721691_x_at) / Fold change /veh CYB561 (11721691_x_at) / RFU ANKRD19P (11752326_a_at) / Fold change /veh ANKRD19P (11752326_a_at) / RFU OR2T12 /// OR2T33 /// OR2T8 (11738714_s_at) / Fold change /veh OR2T12 /// OR2T33 /// OR2T8 (11738714_s_at) / RFU VCAN (11748164_a_at) / Fold change /veh VCAN (11748164_a_at) / RFU JSRP1 (11732532_at) / Fold change /veh JSRP1 (11732532_at) / RFU KRTAP10-11 (11738290_x_at) / Fold change /veh KRTAP10-11 (11738290_x_at) / RFU MYO3A (11730013_a_at) / Fold change /veh MYO3A (11730013_a_at) / RFU EBF3 (11725865_a_at) / Fold change /veh EBF3 (11725865_a_at) / RFU CAMK2N1 (11719241_x_at) / Fold change /veh CAMK2N1 (11719241_x_at) / RFU C5orf56 (11738088_a_at) / Fold change /veh C5orf56 (11738088_a_at) / RFU OLFML3 (11715873_a_at) / Fold change /veh OLFML3 (11715873_a_at) / RFU LOC100653217 /// NTM (11731650_a_at) / Fold change /veh LOC100653217 /// NTM (11731650_a_at) / RFU MAPK11 (11762145_a_at) / Fold change /veh MAPK11 (11762145_a_at) / RFU FIZ1 (11724087_x_at) / Fold change /veh FIZ1 (11724087_x_at) / RFU OASL (11726364_x_at) / Fold change /veh OASL (11726364_x_at) / RFU SOX15 (11748057_x_at) / Fold change /veh SOX15 (11748057_x_at) / RFU CD79A (11719716_a_at) / Fold change /veh CD79A (11719716_a_at) / RFU HIST1H1D (11736915_at) / Fold change /veh HIST1H1D (11736915_at) / RFU CASKIN2 (11723855_a_at) / Fold change /veh CASKIN2 (11723855_a_at) / RFU LOC730098 (11760151_x_at) / Fold change /veh LOC730098 (11760151_x_at) / RFU OR4N2 (11742367_at) / Fold change /veh OR4N2 (11742367_at) / RFU PRRT2 (11749266_a_at) / Fold change /veh PRRT2 (11749266_a_at) / RFU SNX32 (11753110_a_at) / Fold change /veh SNX32 (11753110_a_at) / RFU CDHR5 (11726645_a_at) / Fold change /veh CDHR5 (11726645_a_at) / RFU RCAN1 (11760418_a_at) / Fold change /veh RCAN1 (11760418_a_at) / RFU FAM167A (11723789_a_at) / Fold change /veh FAM167A (11723789_a_at) / RFU FAM26E (11764081_at) / Fold change /veh FAM26E (11764081_at) / RFU ISYNA1 (11749810_s_at) / Fold change /veh ISYNA1 (11749810_s_at) / RFU ACY1 (11761880_at) / Fold change /veh ACY1 (11761880_at) / RFU 11764098_at / Fold change /veh 11764098_at / RFU SAMD14 (11745864_x_at) / Fold change /veh SAMD14 (11745864_x_at) / RFU NPB (11741838_a_at) / Fold change /veh NPB (11741838_a_at) / RFU TMPRSS6 (11731388_a_at) / Fold change /veh TMPRSS6 (11731388_a_at) / RFU KRTAP10-2 (11738614_at) / Fold change /veh KRTAP10-2 (11738614_at) / RFU ARHGAP8 /// PRR5-ARHGAP8 (11727945_x_at) / Fold change /veh ARHGAP8 /// PRR5-ARHGAP8 (11727945_x_at) / RFU KRTAP5-7 /// NADSYN1 (11734609_at) / Fold change /veh KRTAP5-7 /// NADSYN1 (11734609_at) / RFU RASL12 (11751679_a_at) / Fold change /veh RASL12 (11751679_a_at) / RFU CDKN2B (11736163_a_at) / Fold change /veh CDKN2B (11736163_a_at) / RFU PRF1 (11729649_at) / Fold change /veh PRF1 (11729649_at) / RFU, ZNF638 /// ZNF638-IT1 / Fold change vs veh, ZNF638 /// ZNF638-IT1 / RFU, PANK3 / Fold change vs veh, PANK3 / RFU, SH3YL1 / Fold change vs veh, SH3YL1 / RFU, ZEB2 / Fold change vs veh, ZEB2 / RFU, NRIP1 / Fold change vs veh, NRIP1 / RFU, PTTG1IP / Fold change vs veh, PTTG1IP / RFU, CAPN2 / Fold change vs veh, CAPN2 / RFU, MED14 / Fold change vs veh, MED14 / RFU, SNORA58 / Fold change vs veh, SNORA58 / RFU, C1orf63 / Fold change vs veh, C1orf63 / RFU, LRRFIP1 / Fold change vs veh, LRRFIP1 / RFU, NDUFAF7 / Fold change vs veh, NDUFAF7 / RFU, SLC12A2 / Fold change vs veh, SLC12A2 / RFU, IBTK / Fold change vs veh, IBTK / RFU, ESF1 / Fold change vs veh, ESF1 / Fold change vs veh, TMEM50B / RFU, TAOK1 / Fold change vs veh, TAOK1 / RFU, ACBD3 / Fold change vs veh, ACBD3 / RFU, TMA16 / Fold change vs veh, TMA16 / RFU, RWDD3 / Fold change vs veh, RWDD3 / RFU, BCAT1 / Fold change vs veh, BCAT1 / RFU, EDEM3 / Fold change vs veh, EDEM3 / RFU, TMEM33 / Fold change vs veh, TMEM33 / RFU, WDR75 / Fold change vs veh, WDR75 / RFU, AHCTF1 / Fold change vs veh, AHCTF1 / RFU, TFRC / Fold change vs veh, TFRC / RFU, ZDHHC17 / Fold change vs veh, ZDHHC17 / RFU, NOM1 / Fold change vs veh, NOM1 / RFU, ARL8B / Fold change vs veh, ARL8B / RFU, ZBTB11 / Fold change vs veh, ZBTB11 / RFU, TAMM41 / Fold change vs veh, TAMM41 / RFU, KIAA1704 /// LOC100996395 / Fold change vs veh, KIAA1704 /// LOC100996395 / RFU, ING1 / Fold change vs veh, ING1 / RFU, TRMT61B / Fold change vs veh, TRMT61B / RFU, FUBP3 / Fold change vs veh, FUBP3 / RFU, TP53 / Fold change vs veh, TP53 / RFU, TNKS2 / Fold change vs veh, TNKS2 / RFU, ZFP14 / Fold change vs veh, ZFP14 / RFU, ACTR2 / Fold change vs veh, ACTR2 / RFU, PPP3R1 / Fold change vs veh, PPP3R1 / RFU, PIK3R1 / Fold change vs veh, PIK3R1 / RFU, HNRNPA1 / Fold change vs veh, HNRNPA1 / RFU, RNF170 / Fold change vs veh, RNF170 / RFU, ZNF28 / Fold change vs veh, ZNF28 / RFU, RNGTT / Fold change vs veh, RNGTT / RFU, OGT / Fold change vs veh, OGT / RFU, BRD1 / Fold change vs veh, BRD1 / RFU, MARS / Fold change vs veh, MARS / RFU, ZNF655 / Fold change vs veh, ZNF655 / RFU, FAHD1 / Fold change vs veh, FAHD1 / RFU, BDP1 / Fold change vs veh, BDP1 / RFU, LRRCC1 / Fold change vs veh, LRRCC1 / RFU, ARID1A / Fold change vs veh, ARID1A / RFU, ZNF146 / Fold change vs veh, ZNF146 / RFU, ZNF330 / Fold change vs veh, ZNF330 / RFU, GPN3 / Fold change vs veh, GPN3 / RFU, C9orf123 / Fold change vs veh, C9orf123 / RFU, N4BP2L2 / Fold change vs veh, N4BP2L2 / RFU, ARFIP1 / Fold change vs veh, ARFIP1 / RFU, FAM179B / Fold change vs veh, FAM179B / RFU, BCL10 / Fold change vs veh, BCL10 / RFU, UHRF1BP1L / Fold change vs veh, UHRF1BP1L / RFU, BET1 / Fold change vs veh, BET1 / RFU, CNOT2 / Fold change vs veh, CNOT2 / RFU, ZNF268 / Fold change vs veh, ZNF268 / Fold change vs veh, ZNF507 / RFU, DGCR2 / Fold change vs veh, DGCR2 / RFU, WDSUB1 / Fold change vs veh, WDSUB1 / Fold change vs veh, HSP90B1 /// MIR3652 / RFU, ADSS / Fold change vs veh, ADSS / RFU, GK / Fold change vs veh, GK / RFU, ZNF148 / Fold change vs veh, ZNF148 / RFU, TAF9 / Fold change vs veh, TAF9 / RFU, SLC1A5 / Fold change vs veh, SLC1A5 / RFU, SLMO2 / Fold change vs veh, SLMO2 / RFU, ABCC4 / Fold change vs veh, ABCC4 / RFU, LOC101060439 /// RAP1B / Fold change vs veh, LOC101060439 /// RAP1B / RFU, RFX7 / Fold change vs veh, RFX7 / RFU, GTPBP10 / Fold change vs veh, GTPBP10 / RFU, CNEP1R1 / Fold change vs veh, CNEP1R1 / RFU, BIVM-ERCC5 /// ERCC5 / Fold change vs veh, BIVM-ERCC5 /// ERCC5 / RFU, ILF3 / Fold change vs veh, ILF3 / RFU 11762660_at / Fold change /veh 11762660_at / RFU VCAN (11757783_s_at) / Fold change /veh VCAN (11757783_s_at) / RFU DDX43 (11728927_at) / Fold change /veh DDX43 (11728927_at) / RFU KRT8 (11758188_x_at) / Fold change /veh KRT8 (11758188_x_at) / RFU NKD1 (11759106_at) / Fold change /veh NKD1 (11759106_at) / RFU SRD5A1 (11742802_a_at) / Fold change /veh SRD5A1 (11742802_a_at) / RFU TPSAB1 /// TPSB2 (11721975_s_at) / Fold change /veh TPSAB1 /// TPSB2 (11721975_s_at) / RFU GSTM3 (11746129_a_at) / Fold change /veh GSTM3 (11746129_a_at) / RFU IL23R (11737362_x_at) / Fold change /veh IL23R (11737362_x_at) / RFU TMEM51 (11727254_a_at) / Fold change /veh TMEM51 (11727254_a_at) / RFU PIWIL2 (11732686_x_at) / Fold change /veh PIWIL2 (11732686_x_at) / RFU ORM1 (11744905_x_at) / Fold change /veh ORM1 (11744905_x_at) / RFU CCDC152 (11743942_at) / Fold change /veh CCDC152 (11743942_at) / RFU ECM1 (11717891_a_at) / Fold change /veh ECM1 (11717891_a_at) / RFU IL23R (11748794_a_at) / Fold change /veh IL23R (11748794_a_at) / RFU TNFAIP8L3 (11732012_x_at) / Fold change /veh TNFAIP8L3 (11732012_x_at) / RFU MBOAT4 (11741988_at) / Fold change /veh MBOAT4 (11741988_at) / RFU 11764193_at / Fold change /veh 11764193_at / RFU TMEM53 (11763286_at) / Fold change /veh TMEM53 (11763286_at) / RFU MAGEB2 (11727129_at) / Fold change /veh MAGEB2 (11727129_at) / RFU TMEM200A (11744735_a_at) / Fold change /veh TMEM200A (11744735_a_at) / RFU CCDC152 (11751479_a_at) / Fold change /veh CCDC152 (11751479_a_at) / RFU FAM211A (11726209_a_at) / Fold change /veh FAM211A (11726209_a_at) / RFU RGS16 (11746705_a_at) / Fold change /veh RGS16 (11746705_a_at) / RFU VCAN (11755009_s_at) / Fold change /veh VCAN (11755009_s_at) / RFU RHOB (11743442_s_at) / Fold change /veh RHOB (11743442_s_at) / RFU RGS16 (11720943_a_at) / Fold change /veh RGS16 (11720943_a_at) / RFU RGS16 (11720944_at) / Fold change /veh RGS16 (11720944_at) / RFU, VPS4B / Fold change vs veh, VPS4B / RFU, CREB1 / Fold change vs veh, CREB1 / RFU, DNAJC13 / Fold change vs veh, DNAJC13 / RFU, GNAQ / Fold change vs veh, GNAQ / RFU, CDK5R1 / Fold change vs veh, CDK5R1 / RFU, ZRANB3 / Fold change vs veh, ZRANB3 / RFU, CUL4A / Fold change vs veh, CUL4A / RFU, CCNY / Fold change vs veh, CCNY / RFU, UFL1 / Fold change vs veh, UFL1 / RFU, COG3 / Fold change vs veh, COG3 / RFU, DIAPH2 / Fold change vs veh, DIAPH2 / RFU, SKA2 / Fold change vs veh, SKA2 / RFU, AFF3 / Fold change vs veh, AFF3 / RFU, LMF1 / Fold change vs veh, LMF1 / RFU, IPO11 / Fold change vs veh, IPO11 / RFU, DFFB / Fold change vs veh, DFFB / RFU, FOXP1 / Fold change vs veh, FOXP1 / RFU, CARD8 / Fold change vs veh, CARD8 / RFU, STRN3 / Fold change vs veh, STRN3 / RFU, ADK / Fold change vs veh, ADK / RFU, RASSF2 / Fold change vs veh, RASSF2 / RFU, WIPF1 / Fold change vs veh, WIPF1 / RFU, LARP1B / Fold change vs veh, LARP1B / RFU, RASA1 / Fold change vs veh, RASA1 / RFU, RB1 / Fold change vs veh, RB1 / RFU, PPFIA1 / Fold change vs veh, PPFIA1 / RFU, MAT2A / Fold change vs veh, MAT2A / RFU, CCT5 / Fold change vs veh, CCT5 / RFU, WDR92 / Fold change vs veh, WDR92 / RFU, CUX1 / Fold change vs veh, CUX1 / RFU, TTC7A / Fold change vs veh, TTC7A / RFU, TMEM135 / Fold change vs veh, TMEM135 / RFU, DEPTOR / Fold change vs veh, DEPTOR / RFU, CPM / Fold change vs veh, CPM / RFU, DNAJB6 / Fold change vs veh, DNAJB6 / RFU, CACNA2D3 / Fold change vs veh, CACNA2D3 / RFU, DTX4 / Fold change vs veh, DTX4 / RFU, TFCP2 / Fold change vs veh, TFCP2 / RFU, GMCL1 /// GMCL1P1 / Fold change vs veh, GMCL1 /// GMCL1P1 / RFU, AEBP2 / Fold change vs veh, AEBP2 / RFU, SNHG1 /// SNORD22 /// SNORD25 /// SNORD26 /// SNORD27 /// SNORD28 /// SNORD29 /// SNORD31 / Fold change vs veh, SNHG1 /// SNORD22 /// SNORD25 /// SNORD26 /// SNORD27 /// SNORD28 /// SNORD29 /// SNORD31 / Fold change (Aza/veh), C12orf56 (ProbeSet 11735607_a_at) / Fold change (ACY-1035/veh), C12orf56 (ProbeSet 11735607_a_at) / Fold change (Aza/veh), FGFR1OP (ProbeSet 11751329_s_at) / Fold change (ACY-1035/veh), FGFR1OP (ProbeSet 11751329_s_at) / Fold change (Aza/veh), VPS36 (ProbeSet 11739960_a_at) / Fold change (ACY-1035/veh), VPS36 (ProbeSet 11739960_a_at) / RFU SYPL1 (11715823_x_at) / Fold change /veh SYPL1 (11715823_x_at) / RFU IGFBP7 (11715501_s_at) / Fold change /veh IGFBP7 (11715501_s_at) / RFU REEP3 (11722064_at) / Fold change /veh REEP3 (11722064_at) / RFU IGLL1 (11728026_x_at) / Fold change /veh IGLL1 (11728026_x_at): dose or concentration left out as unconfirmed
# Settings: ProbeSet 11758440_s_at; LIST B
compound,measurement,value
Nc1ccc(-c2cccs2)cc1NC(=O)c1ccc2c(c1)cc(C1CC1)n2CCN1CCOCC1 [ACY-1035],"RFU, RFX7",47.76 RFU
